From patent publication US11786494B2, “Methods of modulation of branched chain acids and uses thereof” (Baylor College of Medicine, priority 2009, dated 2023)

Columns and labels:
[1] = tested on: E1α-phospho/E1α, E2, BCATm, BCATc; assay: Western blotting of BCKD complex and BCAT isozymes in lymphoblast cells; format: cell-based, human; conditions: for phosphorylation state of E1α: CIC 1 mM 2 h alone, or together with phenylbutyrate
[2] = molecular target: branched-chain alpha-keto acid dehydrogenase kinase (BDK) (Homo sapiens, UniProt O14874); conditions: Harris et al., 1982; cited from earlier work
BCKDC = molecular target: T1, BCKDC (Homo sapiens, UniProt P12694+P21953); assay: Leucine oxidation in lymphoblast cells in presence of CIC; format: cell-based; set-up: Transformed lymphoblast cell lines were available from all 5 MSUD patients and from 2 controls to measure BCKDC activity; endogenous in cells; conditions: both control cells, CIC 1 mM
T1 sequence (P12694 46-445): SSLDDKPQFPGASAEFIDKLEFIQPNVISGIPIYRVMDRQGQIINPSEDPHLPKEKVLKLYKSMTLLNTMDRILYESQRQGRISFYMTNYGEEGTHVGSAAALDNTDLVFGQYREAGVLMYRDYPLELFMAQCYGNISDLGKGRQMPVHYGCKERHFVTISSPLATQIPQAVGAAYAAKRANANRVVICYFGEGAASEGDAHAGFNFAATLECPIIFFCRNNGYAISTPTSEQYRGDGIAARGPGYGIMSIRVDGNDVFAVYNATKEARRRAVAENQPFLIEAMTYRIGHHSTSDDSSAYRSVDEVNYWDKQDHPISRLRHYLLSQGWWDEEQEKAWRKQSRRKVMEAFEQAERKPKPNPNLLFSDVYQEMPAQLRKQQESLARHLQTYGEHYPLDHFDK
T1 sequence (P21953 51-392): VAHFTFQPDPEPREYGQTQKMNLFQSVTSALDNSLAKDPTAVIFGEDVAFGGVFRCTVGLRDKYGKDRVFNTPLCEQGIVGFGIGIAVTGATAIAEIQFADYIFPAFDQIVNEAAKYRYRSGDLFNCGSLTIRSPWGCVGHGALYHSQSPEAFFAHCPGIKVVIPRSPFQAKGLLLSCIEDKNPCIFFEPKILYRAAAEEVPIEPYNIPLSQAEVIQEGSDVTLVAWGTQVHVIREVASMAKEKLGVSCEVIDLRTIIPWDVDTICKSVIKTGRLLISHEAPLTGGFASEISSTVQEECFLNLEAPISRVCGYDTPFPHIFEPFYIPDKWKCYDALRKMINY
Procedure: FIGS. 8A-8C. FIGS. 8A and 8B show leucine oxidation in presence of CIC in lymphoblast cells from control subjects (C-660, C-661) and MSUD patients (P-1, -2, -3, -4, -5) untreated or treated with 1 mM phenylbutyrate for 48 h. Leucine oxidation was measured by using radioactive assay as described in Materials and Methods and is expressed in pmol CO2 released/min/mg protein. CIC was added to all reactions in 1 mM concentration. Values are means±SD (n=3), * p≥0.05, **p≥0.01. […] Images are representative of two independent experiments.
Because phenylbutyrate affects E1α phosphorylation state in vivo (see FIG. 5), leucine oxidation was measured in the same cell lines as in FIG. […] with CIC in the assay. […] Changes in BCAT isoenzyme activity also impacts BCKA production, in specific cases. All patient cell lines accumulated more KIC than observed in control cell lines.

[3] = cited from earlier work; for time to peak concentration: metabolites after a dose of 5 g of phenylbutyrate; for mean peak concentration: metabolites after oral dosing of phenylbutyrate; for elimination half-life: oral phenylbutyrate, estimated
[4] = substrate: O=C(O)CCCc1ccccc1; assay: E1 catalyzed decarboxylase activity (DCPIP assay); format: biochemical; conditions: other: E1 catalyzed decarboxylase activity, [+] Phenylbutyrate
Procedure: (§1) To determine the effect of phenylbutyrate on individual BCAA catabolic enzymes, activities of mitochondrial branched chain amino transferase (BCATm) and BCKDC enzymes were measured with and without phenylbutyrate using purified recombinant enzymes. BCATm generates the BCKA products that are elevated in MSUD and are the substrates for BCKDC. BCATm activity was measured at pH 8.0 and 298 K as described in Example 2. Kinetics of the E1 decarboxylase reaction with and without phenylbutyrate were determined in the presence of an artificial electron acceptor 2, 6-dichlorophenolindophenol (DCPIP). The assay mixture contained 100 mM potassium phosphate, pH 7.5, 2.0 mM MgCl2, 0.2 mM thiamin diphosphate (ThDP) and 0.1 mM DCPIP. The rate of decarboxylation at 30° C. was measured by monitoring the reduction of the dye at 600 nm (24, 25). For the overall BCKDC activity assay, the enzymes were exchanged into phosphate buffer (30 mM potassium phosphate, pH 7.5) containing 5 mM DTT using a PD-10 column and the enzyme concentrations were calculated from the absorption maxima at 280 nm. The protein complex was reconstituted with E1, lipoylated E2 (lip-E2) and E3 at a molar ratio of 12:1:55, in which lip-E2 exists as a 24-mer. The assay mixture contained 30 mM potassium phosphate pH 7.5, 100 mM NaCl, 3 mM NAD^+, 0.4 mM CoA, 2 mM MgCl2, 2 mM DTT, 0.1% Triton X-100, and 2 mM ThDP. The overall reaction was monitored by formation of NADH at 340 nm. The apparent rate constants (kapp) at different substrate concentrations for all of the above assays were determined from the absorption changes at the individual wavelength maximum. The kapp rate constants were fit using the following equation: kapp=kcat[S]/(Km+[S])

[5] = substrate: O=C(O)CCCc1ccccc1; assay: Overall BCKDC activity assay (reconstituted E1, lip-E2, E3; NADH formation); format: biochemical; conditions: other: Activity of BCKDC, [+] Phenylbutyrate
Procedure: as §1

[6] = substrate α-ketoisocaproate (KIC)
[7] = substrate α-ketoisovalerate (KIV)

CC(C)CC(Cl)C(=O)O (stereo not drawn) [CIC, Alpha-chloroisocaproate]
phosphorylation state of E1α ([1]; both controls and patients 4 and 5): decreases | E2 or BCAT isozyme levels ([1]; lymphoblasts, CIC): did not have any effect | phosphorylation state of E1α ([1]; patients 1, 2 and 3): no effect | inhibition of BDK [2]: known inhibitor | leucine oxidation activity in the presence of CIC vs alone (BCKDC): higher activity

NC(=O)CC[C@H](NC(=O)Cc1ccccc1)C(=O)O [phenylacetateglutamine]
time to peak concentration [3]: around 3.5 h | mean peak concentration [3]: 62.8 µg/mL | elimination half-life [3]: 2.4 h

O=C(O)Cc1ccccc1 [phenylacetate]
time to peak concentration [3]: around 3.5 h | mean peak concentration [3]: 45.3 µg/mL | elimination half-life [3]: 1.3 h

B1: E1 (unphosphorylated) of BCKDC (Homo sapiens) (protein)
chain 1: T1 sequence (P12694 46-445)
chain 2: T1 sequence (P21953 51-392)
Km ([4]; with KIC as substrate): 24.0 ± 2.0 µM | kcat ([4]; with KIC as substrate): 20.2 ± 1.5 min⁻¹ | Km ([4]; with KIV as substrate): 22.0 ± 2.0 µM | kcat ([4]; with KIV as substrate): 25.0 ± 2.0 min⁻¹ | Km ([4]; with KMV as substrate): 21.0 ± 3.0 µM

B2: BCKDC (Homo sapiens) (protein)
chain 1: T1 sequence (P12694 46-445)
chain 2: T1 sequence (P21953 51-392)
Km ([5]; substrate α-keto-β-methylvalerate (KMV)): 50.0 ± 3.0 µM | Km [5, 6]: 41.0 ± 5.0 µM | kcat [5, 6]: 255.0 ± 10.0 min⁻¹ | Km [5, 7]: 40.0 ± 5.0 µM | kcat [5, 7]: 309.0 ± 15.0 min⁻¹
